In patent US20090209556A1, “SOLUBLE GUANYLATE CYCLASE ACTIVATORS” (priority 2007, published 2009):

Molecular target: T1, Human recombinant sGC enzyme (Homo sapiens, UniProt Q02108+Q02153)
T1 construct: purchased Axxora, LLC (San Diego, Calif.)
T1 sequence (Q02153 1-619): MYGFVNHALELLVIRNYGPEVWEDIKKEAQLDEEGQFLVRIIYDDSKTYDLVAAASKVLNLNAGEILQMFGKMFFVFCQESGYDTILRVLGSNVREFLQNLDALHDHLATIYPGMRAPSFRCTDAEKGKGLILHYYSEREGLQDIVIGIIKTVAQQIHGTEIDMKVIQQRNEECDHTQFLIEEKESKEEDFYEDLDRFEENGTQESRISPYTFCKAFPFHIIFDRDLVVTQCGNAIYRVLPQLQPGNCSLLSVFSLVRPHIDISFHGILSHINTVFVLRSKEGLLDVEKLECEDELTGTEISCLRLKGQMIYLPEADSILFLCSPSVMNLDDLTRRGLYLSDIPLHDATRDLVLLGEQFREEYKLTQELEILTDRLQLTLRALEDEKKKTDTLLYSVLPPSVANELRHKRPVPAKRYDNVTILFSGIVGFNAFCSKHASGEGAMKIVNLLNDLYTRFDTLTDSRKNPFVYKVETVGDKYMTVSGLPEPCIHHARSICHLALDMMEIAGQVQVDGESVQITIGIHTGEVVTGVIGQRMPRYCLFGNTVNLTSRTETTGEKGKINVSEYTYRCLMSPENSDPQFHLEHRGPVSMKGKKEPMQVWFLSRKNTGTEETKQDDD
T1 sequence (Q02108 1-690): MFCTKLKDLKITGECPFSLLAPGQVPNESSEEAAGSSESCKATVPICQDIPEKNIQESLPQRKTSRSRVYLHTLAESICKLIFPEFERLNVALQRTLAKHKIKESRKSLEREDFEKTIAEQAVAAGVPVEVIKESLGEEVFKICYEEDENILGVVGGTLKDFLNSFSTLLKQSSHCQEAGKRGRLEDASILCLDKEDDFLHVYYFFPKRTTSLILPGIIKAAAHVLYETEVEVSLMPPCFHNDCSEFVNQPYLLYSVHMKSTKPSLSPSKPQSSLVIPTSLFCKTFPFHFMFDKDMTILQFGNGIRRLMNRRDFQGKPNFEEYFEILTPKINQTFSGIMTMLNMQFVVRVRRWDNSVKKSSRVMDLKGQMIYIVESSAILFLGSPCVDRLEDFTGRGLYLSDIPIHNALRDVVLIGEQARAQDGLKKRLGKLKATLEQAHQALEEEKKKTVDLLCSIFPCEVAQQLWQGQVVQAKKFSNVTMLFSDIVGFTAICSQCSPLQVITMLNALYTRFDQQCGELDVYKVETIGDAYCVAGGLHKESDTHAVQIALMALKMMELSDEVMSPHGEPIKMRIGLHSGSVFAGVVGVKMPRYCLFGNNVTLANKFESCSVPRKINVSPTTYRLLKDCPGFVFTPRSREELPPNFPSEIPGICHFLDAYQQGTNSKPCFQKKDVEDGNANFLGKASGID
Assay: Measurement of soluble guanylyl cyclase activation (enzyme-based), PCASA cell-free enzymatic assay, cGMP by HTRF
Format: biochemical
Conditions: purified sGC 0.1 ng, substrate GTP, 1 hr at 37° C.
Description: Measurement of Soluble Guanylyl Cyclase ([…]) Activation (Enzyme-Based)
Activities of test compounds against purified sGC were evaluated in PCASA assay which is a cell-free enzymatic assay.
Human recombinant sGC enzyme with greater than 95% purity was obtained from Axxora, LLC (San Diego, Calif.). Compounds were incubated with 0.1 ng of sGC enzyme in presence of its substrate GTP for 1 hr at 37° C. At the end of the incubation period, the reaction was stopped and the amount of cGMP generated was measured by an HTRF-based assay (CisBio, 62GN2PEC), which detects the displacement of a fluorophore-labeled cGMP from its specific antibody.
Inflection point, maximum % of activation, and EC50 were derived based on the plot of compound concentration vs % activation.

EC50: 1.7 nM
Structure (SMILES): O=C(O)c1cnn(-c2cccc(-c3cc(Cl)ccc3OCc3ccc([C@H]4CC[C@H](C(F)(F)F)CC4)cc3)n2)c1C(F)(F)F [Example 9]
